Experimental data taken from patent US11110070B2 (priority 2015, dated 2021).
Entries after “also recorded” stand apart in the source; their conditions may differ.

What was measured:
C57BL/6NTac mice = test: FST in chronic corticosterone (CORT) model; format: in vivo
129S6/SvEvTac mice [1] = test: Open field (OF) after reinstatement; format: in vivo
Protocol: OF protocol was administered as previously described (Richardson-Jones et al., 2010).

129S6/SvEv mice = test: FST after prophylactic ketamine or ketamine metabolites (FIG. 15); format: in vivo; conditions: prophylactic K-injected vs Sal-injected mice
129S6/SvEvTac mice [2] = test: Forced swim test (FST) in social defeat (SD) model; format: in vivo
Protocol: Experiment 1 (Pre-ketamine in social defeat (SD)): At 8 weeks of age, a single injection of saline (0.9% NaCl) or ketamine (K) (10, 30, or 90 mg kg^−1) (Ketaset III, Ketamine HCl, Fort Dodge Animal Health, Forth Dodge, Iowa) was administered. Ketamine was prepared in physiological saline and all injections were administered intraperitoneally (i.p.) in volumes of 0.1 cc per […]. […] At 9 weeks of age, 1 week following this injection, SD was started.
24 h after the last bout of SD, a single injection of saline or ketamine (30 mg kg^−1) was administered (mice were 11 weeks old). The forced swim test (PST) was administered 2 h following the injection.
Experiment 3 (Pre-fluoxetine in SD): At 6 weeks of age, fluoxetine hydrochloride (Fix) (BioTrend Chemicals AG, B6197) was administered in the drinking water (18 mg kg^−1/day) for 3 weeks before the start of SD. Starting at 9 weeks of age, SD was then administered for 2 weeks without vehicle or Flx in the drinking water.
Adult aggressor CD-1 male mice were single-housed in Macrolon® polycarbonate resin cages (15.25 in×7.8 in×9.5 in) (Animal Care Systems, Inc., Centennial, Colo.). Male 129S6/SvEvTac mice (9 weeks of age) were subsequently placed into the resident. CD-1 mouse's cage. Three antagonistic encounters were allowed between the CD-1 mouse and the intruder. Each of these encounters typically lasted less than 5 min. Following the encounters, mice were separated by a polished stainless steel cage divider (Animal Care Systems, Inc., Centennial, Colo., P/N C79171), which allowed for olfactory and auditory communication, but limited visual or tactile contact. The partition was removed daily for 2 weeks and 3 antagonistic encounters were allowed between the mice each day. This procedure consistently yielded a submissive phenotype in the experimental intruder mice. Control (Ctrl) mice were group housed 4 to 5 per cage in Macrolon® polycarbonate resin cages without dividers.
The FST was administered as previously described (A11). Briefly, mice were placed into clear plastic buckets 20 cm in diameter and 23 cm deep filled ⅔ of the way with 22° C. water. Mice were videotaped, from the side for 6 min and were exposed to the swim test on 2 consecutive days. For the SI) experiments, scoring was performed using an automated Viewpoint Videotrack software package (http://www.viewpoint.fr/en/a/anxiety-and-depression). For the CORT experiments, automated scoring was done using the automated X'PERT EST software suite (Bioseb, Vitrolles, France). The dependent variable was immobility.

129S6/SvEvTac mice [3] = test: 1-shock contextual fear conditioning (CFC) in SD experiments; format: in vivo; conditions: ketamine after SD
Protocol: The 1-shock CFC procedure was performed as previously published (A15). Briefly, mice were placed into context A and administered a 2-s shock (0.75 mA) 180 s later. Mice were removed from the context 15 s following the termination of shock (at 197 s). For context retrieval, mice were placed back into context A for 180 s. For alternate contexts, mice were placed into the contexts for 180 s.

[4] = in rodents; cited from earlier work
129S6/SvEvTac mice [5] = test: Social interaction with a novel mouse after SD; format: in vivo; conditions: ketamine 30 mg kg^−1 before SD
Protocol: Mice were placed into a large open field containing 2 upside-down wire mesh pencil cups. One pencil cup served as a novel object or empty container. The other pencil cup contained a novel 129S6/SvEv male mouse. Mice were placed in the middle of the open field arena and allowed to explore for 10 min. Sessions were videotaped and the first 5 min were later analyzed using behavioral tracking software (TopScan, CleverSys, Reston, Va.).

chronic PTSD = conditions: intravenous infusion; compared with midazolam; cited from earlier work
129S6/SvEvTac mice [6] = test: Elevated plus maze (EPM) in SD experiments; format: in vivo; conditions: ketamine 30 mg kg^−1 before SD; Ctrl and SD groups
Protocol: Testing was performed as previously described (A14). Briefly, the maze is a plus-cross-shaped apparatus consisting of four arms, two open and two enclosed by walls, linked by a central platform at a height of 50 cm from the floor. Mice were individually placed in the center of the maze facing an open arm and were allowed to explore the maze for 5 min. The time spent in and the number of entries into the open arms was used as an anxiety index. For the 12956/SvEv experiments, videos were scored using behavioral tracking software (TopScan, CleverSys, Reston, Va.). For the C57BL/6Ntac experiments, all parameters were measured using a videotracker (EPM3C. Bioseb, Vitrolles, France).

[7] = Body weight in CORT model; format: in vivo, mice; conditions: ketamine 90 mg kg^−1 single injection or fluoxetine 18 mg kg^−1 for 3 weeks, before CORT

## CNC1(c2ccccc2Cl)CCCCC1=O (racemic) [ketamine, (RS)-2-(2-chlorophenyl)-2-(methylamino)cyclohexanone]
C57BL/6NTac mice; C57BL/6NTac mice, doses tested 10, 30, 90 mg kg^−1
  most effective dose in protecting against depressive-like behavior following chronic CORT: 90 mg/kg
C57BL/6NTac mice; CORT model
  persistence of ketamine-induced resilience post-injection: ≥ 4 weeks
C57BL/6NTac mice; ketamine 90 mg kg^−1 or fluoxetine 18 mg kg^−1/day, before 3 weeks of CORT
  immobility time on day 2 in the FST: decreased immobility time; also recorded: significantly reduced immobility
129S6/SvEvTac mice [1]; ketamine 1 week prior to 1-shock reinstatement, vs saline
  number of rearing bouts in the OF: higher number of rearing bouts; also recorded: increased number of rearing bouts
129S6/SvEvTac mice [1]; ketamine 1 week prior to 3-shock reinstatement
  number of rearing bouts in the OF: comparable number of rearing bouts
129S6/SvEv mice
  immobility in day 2 of the FST: significantly less immobility
129S6/SvEvTac mice [2]; Ctrl (group housed) mice, ketamine 30 mg kg^−1 single i.p. injection, vs Ctrl-Sal
  immobility time, day 2 of FST: equal levels of immobility time; also recorded: did not differ from each other
129S6/SvEvTac mice [2]; Ctrl mice, ketamine 30 mg kg^−1 in the post-SD design
  immobility time, day 2 of FST: did not display different immobility time
129S6/SvEvTac mice [2]; SD mice, ketamine 10 mg kg^−1 before SD, vs SD-Sal
  immobility time in FST: did not differ in immobility time
129S6/SvEvTac mice [2]; SD mice, ketamine 30 mg kg^−1 before SD, vs SD-Sal
  average immobility time for minutes 3 to 6 of FST: less than the SD-Sal mice; also recorded: decreased immobility
129S6/SvEvTac mice [2]; SD mice, ketamine 30 mg kg^−1 single injection 1 week before 2 weeks of SD, vs SD-Sal
  immobility time, day 2 of FST: significantly decreased immobility time; also recorded: significantly less immobility time
129S6/SvEvTac mice [2]; SD mice, ketamine 90 mg kg^−1 before SD, vs SD-Sal
  immobility time in FST: did not differ in immobility time
129S6/SvEvTac mice [2]; SD model
  persistence of ketamine-induced resilience post-injection: at least 3 weeks
129S6/SvEvTac mice [2]; doses tested 10, 30, 90 mg kg^−1
  dose found to be effective in the SD paradigm: 30 mg/kg
129S6/SvEvTac mice [2]; ketamine given after SD
  immobility time, minutes 3 to 6 averaged: did not decrease immobility time
129S6/SvEvTac mice [3]
  CFC learning (freezing): did not impact CFC learning; also recorded: comparable levels of freezing
[4]
  half-life: only a few hours
129S6/SvEvTac mice [5]
  social interaction with a novel mouse: did not find an effect
Chronic PTSD
  PTSD symptom severity: significant and rapid reduction in PTSD symptom severity
129S6/SvEvTac mice [6]
  time in the closed arms of EPM: no significant effect of ketamine in either group
[7]
  CORT-induced increase in body weight: prevented the CORT-induced increase in body weight
